Data from EP2002836B1, “Cyclocondensed azaindoles active as kinase inhibitors” (Nerviano Medical Sciences S.r.l., priority 2007, dated 2008).

Columns and labels:
PKAα = molecular target: T1, PKAα (Homo sapiens, UniProt P17612); experiment: FABS-NMR screening (3-FABS, 19F-labelled AKTide-like substrate) on PKA; type: biochemical; details: 25 nM protein, 30 µM substrate, 150 µM ATP
T1 construct: polyHis; made in house; host or cells: E. coli
Method: The biochemical functional NMR screening on the proteins kinase AKT-1 and PKA was performed using the 3-FABS (3-Fluorine Atoms for Biochemical Screening) technique developed by C. Dalvit and the NMR group in house (C. Dalvit et al 2003 J. Am. Chem. Soc. 125 (47): 14620).
The method require the use of a ^19F-labelled substrate. The same commercial peptide was used as substrate in both enzymatic reaction: the Tyr just before the phosphorilation site in the AKTide peptide was mutated in a 3-tryfluormethyl-Phe by Bachem.
The AKTide like peptide sequence is reported below: • H-Ala-Arg-Lys-Arg-Glu-Arg-Ala-F(3-CF3)-Ser-Phe-Gly-His-His-Ala-OH
The active human Ser-Thr protein kinase AKT-1 Full Length was expressed as GST fusion protein in insect cells and then the GST was cleaved with PreScission protease. The active cycled AMP-dependent human protein kinase A PKA was expressed as polyHis-tag protein in E.Coli and purified by affinity column.
Reactions were performed in an end point format in eppendorf of 0.5 ml using the buffer solution 50mM Tris, pH 7.5, 5mM MgCl2, 1mM DTT, 8% D2O and 0.001% Triton-X-100; the final volume was of 560 µl. The substrate and protein concentration were of 30 µM and 25 nM respectively. The reactions were performed using an ATP concentration of about 9 times its KM: 150 µM in the test with PKA and 1.5 mM in the AKT-1 experiments. A sample in absence of inhibitor was run as control in order to follow the ongoing of the reaction and it represents the 0% inhibition. Different concentration compound stock solutions in DMSOd6 were made in order to add the same amount of DMSOd6 in each sample: usually the compounds stock were of 0.03, 0.2, 2, and 10 mM. 0.56 µl of these solution was added in each sample in order to reach the final compounds concentration of 30 nM, 200 nM 2 µM and 10 µM respectively; 0.56 µl of DMSOd6 was added in the control too. The reactions were quenched after about 100/120 minutes with 10 mM of Staurosporine (Sigma code:S4400), transferred into the 5 mm NMR tube (Cortec code: NE-MP5-8) and put onto the Sample Management System (SMS) autosampler for automatic data collection. The spectra were recorded using the Varian Inova 600 MHz NMR spectrometer operating at a ^19F Larmor frequency of 564 MHz and using a 5mm probe with the inner coil tuned to ^19F and the outer coil tuned to H. The data were recorded without proton decoupling with a spectral width of 12000 Hz, an acquisition time of 0.8s and a relaxation delay of 2.8s. Chemical shifts are referenced to trifluoroacetic acid.
IC50 determination was achieved by measuring the substrate signal as a function of the inhibitor concentration using one of the formulas below. […] IC50 data were analyzed with non-linear least squares methods in the Origin 5.0 software package.

AKT2 = molecular target: T2, AKT2 (Homo sapiens, UniProt P31751); experiment: Biochemical assay for inhibitors of AKT2 kinase activity (33P trans-phosphorylation, Dowex resin); details: 10 nM enzyme, 396 microM ATP, 8.5 microM peptide substrate; read-out: AKT2 IC50 (µM) Biochem assay
T2 construct: made in house
Method: (§1) The N-terminal GST fusion proteins used for the assays were prepared according to the methods described in Kumar, C. C. Biochem. Biophys. ACTA 2001, 1526, 257-268, and in Alessi, D. R.. Biochem. J. 1998 331, 299-308.
(§2) The in vitro kinase inhibition assay was conducted in the same way as described for AKT1. The kinase assay was run with a final enzyme concentration of 10 nM, in the presence of 396 microM ATP, 0.88 nM ^33P-γ-ATP and 8.5 microM substrate, a carboxy-terminally biotinylated peptide of the following sequence: ARKRERTYSFGHHA-biotin. The peptide was obtained in batches of >95% peptide purity from PRIMM labs Inc. (Boston MA, USA).

AKT3 = AKT3 (Homo sapiens, UniProt Q9Y243); experiment: Biochemical assay for inhibitors of AKT3 kinase activity (33P trans-phosphorylation, Dowex resin); details: 1 nM enzyme, 180 microM ATP, 28.5 microM peptide substrate; read-out: AKT3 IC50 (µM) Biochem assay
Method: as §1
as §2, with “1” for “10”, “180” for “396”, “28.5” for “8.5”

T2 sequence (P31751 whole entry, species assumed): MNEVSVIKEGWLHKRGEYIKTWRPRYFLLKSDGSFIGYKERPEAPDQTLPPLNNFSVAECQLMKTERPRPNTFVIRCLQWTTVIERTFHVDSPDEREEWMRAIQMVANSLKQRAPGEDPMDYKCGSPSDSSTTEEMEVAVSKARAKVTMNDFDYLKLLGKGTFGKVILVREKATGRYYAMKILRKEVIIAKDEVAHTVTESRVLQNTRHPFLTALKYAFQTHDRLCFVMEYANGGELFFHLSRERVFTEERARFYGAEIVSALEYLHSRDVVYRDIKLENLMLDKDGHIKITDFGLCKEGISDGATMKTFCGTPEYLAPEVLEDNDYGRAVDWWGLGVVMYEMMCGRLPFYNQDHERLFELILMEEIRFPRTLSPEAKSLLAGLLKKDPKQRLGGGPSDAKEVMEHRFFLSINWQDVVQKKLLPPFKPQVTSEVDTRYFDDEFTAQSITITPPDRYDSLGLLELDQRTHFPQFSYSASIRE
Sequence of AKT3 (Q9Y243 2-479): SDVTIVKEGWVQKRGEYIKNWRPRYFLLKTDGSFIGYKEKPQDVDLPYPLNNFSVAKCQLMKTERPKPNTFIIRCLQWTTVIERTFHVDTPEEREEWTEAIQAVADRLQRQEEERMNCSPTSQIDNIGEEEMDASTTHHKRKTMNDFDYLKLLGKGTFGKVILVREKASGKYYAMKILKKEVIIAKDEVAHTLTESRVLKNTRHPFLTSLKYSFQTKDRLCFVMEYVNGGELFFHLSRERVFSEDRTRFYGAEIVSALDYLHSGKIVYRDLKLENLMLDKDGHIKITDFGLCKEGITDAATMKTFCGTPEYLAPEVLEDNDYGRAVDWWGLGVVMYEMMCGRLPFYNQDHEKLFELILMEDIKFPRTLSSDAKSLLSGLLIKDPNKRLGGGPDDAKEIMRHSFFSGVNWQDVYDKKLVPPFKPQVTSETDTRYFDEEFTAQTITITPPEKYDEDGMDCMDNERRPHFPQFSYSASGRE

IC50 (PKAα) | IC50 (AKT2) | IC50 (AKT3) | Compound
0.02 µM | 0.266 µM | 0.032 µM | NC[C@H](Cc1ccccc1)NC(=O)C1=Cc2c[nH]c3nccc(c23)CC1 [Cpd. 1, N-[(1S)-2-amino-1-benzylethyl]-6,7-dihydro-2H-2,3-diazabenzo[cd]azulene-8-carboxamide]
0.075 µM | 1.99 µM | 0.187 µM | CC(=O)N1CC(C(=O)N[C@H](CN)Cc2ccccc2)=Cc2c[nH]c3nccc1c23 [Cpd. 3, 6-acetyl-N-[(1S)-2-amino-1-benzylethyl]-6,7-dihydro-2H-2,3,6-triazabenzo[cd]azulene-8-carboxamide]
0.062 µM | 0.362 µM | 0.043 µM | O=C(N[C@H](CN1CCCC1)c1ccccc1)C1=Cc2c[nH]c3nccc(c23)CC1 [Cpd. 6, N-[(1S)-1-phenyl-2-pyrrolidin-1-ylethyl]-6,7-dihydro-2H-2,3-diazabenzo[cd]azulene-8-carboxamide]
0.01 µM | 0.155 µM | 0.041 µM | NC[C@H](Cc1ccccc1)NC(=O)C1=Cc2c[nH]c3nccc(c23)NC1 [compound 2, N-[(1S)-2-amino-1-benzylethyl]-6,7-dihydro-2H-2,3,6-triazabenzo[cd]azulene-8-carboxamide]
